Results on five molecules are retold here after patent publication US20060127505A1, “Anti-inflammatory formulations” (priority 2002, published 2006).

Molecules are shown by their SMILES. Entries after “also recorded” stand apart in the source; their conditions may differ. Where a name gives a salt, the structure may show the parent alone.

In experiment [1] the target is PAF (Homo sapiens, UniProt P25105). The settings on record: cited from earlier work.
Experiment [2] relates to CD3+HLA-DR+ lymphocytes in human PBMC. Kind of experiment: PHA-mediated induction of CD3+HLA-DR+ lymphocytes in human PBMC (Example 8). It counts as cell-based. The settings on record: PHA 50 μg/ml, 24 hours. As to the method: (§1) Cells from 3-12 asthma patients were cultured 24 hours with 50 μg/ml PHA. PBMC evaluated by 2-color flow cytometry were gated for CD3+ and analyzed for CD3+CD25+ or CD3+HLA-DR+ as a percentage of the CD3+ population. Results are reported as stimulation indices (SI) calculated as the ratio of % CD3+CD25+ cells or % CD3+HLA-DR+ cells in fully-stimulated cultures to % CD3+CD25+ or % CD3+HLA-DR+ respectively in cells treated with PHA plus ASX, GB, or combinations thereof.

Experiment [3] relates to CD3+CD25+ T lymphocytes in human PBMC. Nature of the experiment: PHA induction of CD25+ on CD3+ T cells, PBMC from asthma patients (Example 5). The experiment is classed as cell-based. The settings on record: for SI CD25: PHA 50 μg/ml, 24 hours. As to the method: (§2) Experiments were carried out to determine whether the immunoregulatory capacity of two commonly-used H1-inhibitory antihistamines: cetirizine dihydrochloride (CTZ/Zyrtec) and azelastine ([…]) is potentiated by the platelet activating factor receptor (PAFR) antagonist and free radical scavenger Ginkgolide B (GB). […] Each drug was first evaluated independently over a 3-log dose range from 10^-8-10^-6 M.

Experiment [4] deals with CD3+HLA-DR+ T lymphocytes in human PBMC. Nature of the experiment: PHA induction of HLA-DR+ on CD3+ T cells, PBMC from asthma patients (Example 5). The settings on record: for SI HLA-DR: PHA 50 μg/ml, 24 hours. The experiment is classed as cell-based. As to the method: as §2
The subject of experiment [5] is CD3+CD25+ cells in human PBMC. Nature of the experiment: T lymphocyte activation (CD3+CD25+) in PHA-stimulated PBMC of asthma patients (Example 6). The settings on record: PHA 50 μg/ml, 24 hours. It counts as cell-based. As to the method: Experiments were carried out to determine whether formulations based on the platelet activating factor receptor (PAFR) antagonist and free radical scavenger Ginkgolide B (GB) in combination with the antioxidant carotenoid astaxanthin (ASX) suppress T cell activation in the same dose range as two commonly-used antihistamines: cetirizine dihydrochloride (CTZ/Zyrtec) and azelastine ([…]). […] Results are reported as stimulation indices (SI) of % CD3+CD25+ cells in cultures treated with PHA alone to % CD3+CD25+ cells in each drug-supplemented culture. […] Subjects for this study included 12 patients diagnosed with atopic asthma, 7 male and 5 female, ranging in age from 21 to 40 years (mean 28±1.8 years). Disease duration ranged from 2 to 12 years. Atopy was defined on the basis of one or more positive skin prick tests to a range of 20 allergens. None of the patients had received systemic therapy for at least 6 weeks prior to blood collection. The mean serum IgE was 335 (170-480) IU/ml. Venous blood for each subject was collected in polyethylene tubes containing EDTA during a one hour morning time interval. PBMC were separated by Ficoll-paque (Pharmacia, Uppsala, Sweden) density gradient centrifugation. Cells were washed and suspended in RPMI 1640 medium (Gibco BRL, Gaithersburg, Md.) at density of 1×10^6 cells/ml. PBMC were stimulated with 50 μg/ml Phytohemaglutinin (PHA) (Sigma Immunopharmaceuticals, St. Lous Mo.), or PHA plus 10^-8-10^-5 M astaxanthin (Natural Alternatives International (NAI) Inc., San Marcos Calif.); or ginkgolide B 10^-8-10^-6 M (NAI San Marcos Calif.); or selected combinations of ASX plus GB. Comparison of ASX and GB effects on T cell activation were made with two other pharmacological agents with anti-asthmatic properties by treating cells with 10^-7-10^-4 M cetirizine dihydrochloride (Pfizer Pharmaceuticals, Norwich Conn.); or 10^-7-10^-4 M azalestine hydrochloride (Wallace Pharmaceuticals, Somerset N.J.), followed by evaluation of cultures for the same biological endpoints as ASX/GB-treated cells. Each reagent was added at the outset of a 24 hours culture period, followed by harvest of cellular fraction for immunophenotyping studies. […] Two-color Flow cytometry was conducted using a Coulter Epics XL automated flow cytometer (Coulter Scientific, Hialeah, Fla., USA). Isotypic controls for the monoclonal antibodies (mAb) used to detect antigens of interest were established for each cell preparation. Positive analysis regions for cells expressing specific surface markers were set against controls and specific binding of fluorophore-conjugated mAb was analyzed by cytofluorography according to standard methods recommended by the manufacturer. Lymphocyte subpopulations were identified by position on forward and side scatter plots and live-gated. Expression of each antigen was reported as percentage cells positive for a particular T cell subpopulation defined by expression of CD3 (T lymphocyte marker) plus CD25, plus or minus standard error. Statistical analysis was performed using an independent t-test. All statistical analyses were performed using the SPSS for Windows statistical package (Norusis/SPSS, Inc.). […] The capacity of formulations evaluated in this study to suppress immune activation was measured as a stimulation index (SI), defined as the ratio of […].

For experiment [6], the system named is ovalbumin(OA)-induced asthma in guinea pigs. Nature of the experiment: Ovalbumin-induced asthma in guinea pigs: inflammatory cells in BAL fluid. The experiment is classed as in vivo, guinea pig. As to conditions: components used separately: 10 mg/kg AX, 200 mg/kg vit C, 10 mg/kg GB. The method, then:
The effect combinations of vitamin C, astaxanthin, and ginkolide on asthma-associated disease parameters ovalbumin(OA)-induced asthma in guinea pigs was evaluated. Twenty-four hours following OA challenge, animals are sacrificed and numbers of inflammatory cells (eosinophils, neutrophils, macrophages) are measured in bronchoalveolar lavage (BAL) fluid; and cAMP and cGMP concentrations in the lung tissue. The experiments were carried out as follows. Male Hartley guinea pigs (250-350 g) were sensitized by intramuscular injections of 0.35 ml of a 5% (W/V) ovalbumin (OA)/saline solution into each thigh on days 1 and 4. Guinea pigs were ready for asthmatic challenge after 25 days of ovalbumin injection. Asthmatic challenge was carried out with ovalbumin aerosol, and bronchoalveolar lavage (BAL) was done 24 hours later. The numbers of eosinophils, neutrophils, and macrophages in the BAL fluid were counted. Twenty-four hours after the aerosol OA challenge, guinea pigs were killed by cervical dislocation and exsanguinated by severing the axillary arteries. Lungs were lavaged with 50 ml of DulBecco's phosphate-buffered saline (aliquots of 10 ml), which were aspirated after gentle chest massage. BAL fluid was centrifuged at 2200 rpm (1100×g) for 10 min, supernatant was aspirated, and pellets were resuspended in 5 ml 0.25% NaCl to lyse residual erythrocytes. This dispersion was centrifuged at 2200 rpm (1100×g) for 10 min, supernatant was aspirated, and pellets were resuspended 5 ml 0.9% NaCl. Total cell counts were done by hemocytometry using trypan blue stain. Slides were prepared on a Shandon Cytospin 2 (Pittsburgh, Pa.) at 300 rpm for 5 min, fixed and stained. Differential cell counts were done using standard morphologic criteria to classify cells as eosinophils, neutrophils, or macrophages, and the results were expressed in cell numbers. The dose-responsive effect of AX, EGb761, and vitamin C administered independently for suppression of asthma-associated parameters in allergen-induced, asthmatic guinea pigs was determined. Ibuprophen (IB) was used as the positive control. Concentration of inflammatory cells in bronchoalveolar lavage (BAL) fluid and levels of cAMP and cGMP in lung tissue were measured in guinea pigs 24 hours following challenge with OV. Data is reported as mean±SD of measurements taken in 6 animals per dosage cohort. *p<0.05 compared to corresponding values of OV antigen-challenged, drug-free control group. The dose-responsive effect of AX, EGb761, and vitamin C administered in combination for suppression of asthma-associated parameters in allergen-induced, asthmatic guinea pigs was determined. The combination of these three components was given each day for each guinea pig as a “cocktail”. Concentration of inflammatory cells in bronchoalveolar lavage (BAL) fluid and levels of cAMP and cGMP in lung tissue were measured in guinea pigs 24 hours following challenge with OV. Data is reported as mean±SD of measurements taken in 6 animals per dosage cohort. *p<0.05 compared to corresponding values of OV antigen-challenged, drug-free control group.

Experiment [7] relates to CD3+CD25+ lymphocytes in human PBMC. Nature of the experiment: PHA-mediated induction of CD3+CD25+ lymphocytes in human PBMC (Example 8). It counts as cell-based. The settings on record: PHA 50 μg/ml, 24 hours. As to the method: as §1
Experiment [8] deals with TNF-α. Kind of experiment: TNF-α expression by PHA-stimulated human PBMC, ELISA of supernatant. The experiment is classed as cell-based. The settings on record: PHA 50 μg/ml, 24 hours; 10^−4 M. The method, then: PBMC (2×10^6/ml) from 2 donors were stimulated with 50 μg/ml, PHA; or with astaxanthin (10^−6 M); or with the ginkgolide BN52021 (GB) (10^−4 M); or with a combination of astaxanthin (10^−6 M) plus GB (10^−4 M); or with media. Cells were cultured 24 hours at 37° C., 5% CO2 and analyzed by ELISA for supernatant concentration of TNF-α. Each data point is the mean of triplicate samples.
A general note: In an ELISA, binding on a coated surface is turned into a signal by an enzyme label.

Experiment [9] deals with eosinophils. The settings on record: oral treatment; histamine-induced guinea pig eye model; cited from earlier work.
Experiment [10] concerns cAMP-phosphodiesterase. The settings on record: cited from earlier work.

PAF, sequence (P25105 whole entry): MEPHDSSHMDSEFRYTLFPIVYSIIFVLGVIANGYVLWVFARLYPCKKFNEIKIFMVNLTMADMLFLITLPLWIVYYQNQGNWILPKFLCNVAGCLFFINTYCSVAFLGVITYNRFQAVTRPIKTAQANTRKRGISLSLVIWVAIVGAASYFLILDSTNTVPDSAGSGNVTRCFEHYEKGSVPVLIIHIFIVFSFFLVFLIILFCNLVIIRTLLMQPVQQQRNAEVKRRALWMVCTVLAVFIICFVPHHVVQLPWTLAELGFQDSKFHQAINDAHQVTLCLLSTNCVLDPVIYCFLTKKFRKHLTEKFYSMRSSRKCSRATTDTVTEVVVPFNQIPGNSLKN

For the molecule `COc1ccc(NC(=S)N2CCc3c(sc4c3C(c3ccccc3Cl)=NCc3nnc(C)n3-4)C2)cc1` [BN 50730], in experiment [1], the “PAF antagonistic activity in vitro compared with BN52021” value was “several ten-folds more potent”.

In the case of `CC1C(=O)OC2C(O)C34C5CC(C(C)(C)C)C36C(OC(=O)C6O)OC4(C(=O)O5)C12O` (centres unmarked) [GB, Ginkgolide B], the “CD3+HLA-DR+ Stimulation Index” value in experiment [2] (10^−6 M) was 0.66 ± 0.06; in experiment [2] (10^−7 M), 0.78 ± 0.20; in experiment [2] (10^−8 M) it was 0.73 ± 0.12. The “SI CD25” value in [3] (10^−6 M) amounted to 0.94 ± 0.12; in [3] (10^−7 M), 1.18 ± 0.21; in experiment [3] (10^−8 M) it was 0.81 ± 0.14. In experiment [4] (10^−8 M), the “decrease in SI for HLA-DR” value is listed as 39%. In addition, the “SI HLA-DR” value in [4] (10^−6 M) worked out at 0.72 ± 0.18; in experiment [4] (10^−7 M) it was 0.62 ± 0.18; in experiment [4] (10^−8 M), 0.61 ± 0.10. The “SI (CD3+CD25+)” value in experiment [5] (10^−6 M) was 0.77±0.12; in experiment [5] (10^−8 M), 0.86±0.07. Further, the “protection against OV-induced asthma” value in experiment [6] is on record as “failed to protect; also recorded: failed to reduce the severity of asthma”. For the same molecule, the figures for the “CD3+CD25+ Stimulation Index” value in experiment [7] (10^−6 M), in experiment [7] (10^−7 M) and in [7] (10^−8 M) were 0.83 ± 1.0, 0.92 ± 0.08 and 0.90 ± 0.07, respectively. Also, the TNF-alpha in experiment [8] turned out to be 1689.21 pg/mL.

For `COc1ccc(C2CNC(=O)C2)cc1OC1CCCC1` (centres unmarked) [rolipram], the infiltrate of eosinophils result in experiment [9] is “significantly suppressed infiltrate”.

In the case of `O=C(O)COCCN1CCN(C(c2ccccc2)c2ccc(Cl)cc2)CC1` (centres unmarked) [CTZ, cetirizine dihydrochloride], in experiment [3] (10^−8 M), the “decrease in SI for CD25+” value was found to be 29%. Also, the “SI CD25” value is given as 0.93 ± 0.06 in [3] (10^−6 M), 0.88 ± 0.14 in [3] (10^−7 M) and 0.71 ± 0.12 in [3] (10^−8 M). Moreover, the “decrease in SI for HLA-DR” value in [4] (10^−8 M) stood at 53%. For the same molecule, the entries for the “SI HLA-DR” value in experiment [4] (10^−6 M), in experiment [4] (10^−7 M) and in experiment [4] (10^−8 M) were 0.70 ± 0.04, 0.58 ± 0.11 and 0.47 ± 0.13, respectively. Besides, in experiment [5] (10^−5 M), the “SI (CD3+CD25+)” value was 0.78±0.11.

`COc1ccc(-c2cc(=O)c3c(O)cc(O)c(-c4cc(-c5cc(=O)c6c(O)cc(OC)cc6o5)ccc4OC)c3o2)cc1` [sciadopitysin]: the “degree of enzyme inhibition (cAMP-phosphodiesterase), order” value in experiment [10] is reported as “almost no capacity for inhibition”.
